Test results as given in patent US9593305B2, “Differentiation of pluripotent stem cells” (Janssen Biotech, Inc., priority 2008, dated 2017).

Assays:
[1] = system: H1 human embryonic stem cells; experiment: Step-wise differentiation, FACS for CXCR4 after step 1 (Example 16); assay type: cell-based; settings: 100 ng/ml GDF-8 with compound on first day, compared to activin A and Wnt3a
Experimental: The assay was initiated by aspirating the culture medium from each well and adding back an aliquot (0.5 ml) of test medium. Test conditions for the first step of differentiation were conducted over a three-day period, feeding daily by aspirating and replacing the medium from each well with fresh test medium. On the first day of assay, 100 ng/ml activin A (PeproTech; Cat #120-14) or 100 ng/ml GDF-8 (R&D Systems, Cat #788-G8) was added to respective assay wells where each growth factor was diluted into RPMI-1640 medium (Invitrogen; Cat #: 22400) with 2% Albumin Bovine Fraction V, Fatty Acid Free (FAF BSA) (Proliant Inc. Cat #: SKU 68700), and 20 ng/ml Wnt3a (R&D Systems; Cat #1324-WN/CF). On the second day of assay, 100 ng/ml activin A or 100 ng/ml GDF-8 was diluted into RPMI-1640 medium supplemented with 2% FAF BSA without Wnt3a. In some test samples using GDF-8, Wnt3a was replaced with a small molecule compound, added only on the first day of definitive endoderm differentiation. These small molecules included Compound 19 (2.5 μM in assay), Compound 202 (2.5 μM in assay), Compound 40 (2.5 μM in assay), or a commercially available GSK3 inhibitor BIO (0.5 μM in assay) (EMD Chemicals, Inc.; Cat #361550). At the conclusion of the first step of differentiation, cells from some wells were harvested for flow cytometry analysis to evaluate levels of CXCR4, a marker of definitive endoderm formation. Additional wells were harvested for RT-PCR analysis to measure other markers of differentiation.
Cells for FACS analysis were blocked in a 1:5 solution of 0.5% human gamma-globulin (Sigma; Cat#G-4386) in PBS (Invitrogen; Cat #14040-133): BD FACS staining buffer—BSA (BD; Cat #554657) for 15 minutes at 4° C. Cells were then stained with antibodies for CD9 PE (BD; Cat #555372), CD99 PE (Caltag; #MHCD9904) and CXCR4 APC(R&D Systems; Cat#FAB 173A) for 30 minutes at 4° C. After a series of washes in BD FACS staining buffer, the cells were stained for viability with 7-AAD (BD; Cat #559925) and run on a BD FACSArray. […]

[2] = system: H1 human embryonic stem cells; experiment: Four-step differentiation with GDF-8, RT-PCR of pancreatic endoderm markers after step 4 (Example 19); assay type: cell-based; settings: 100 ng/ml GDF-8 with Wnt3a or with 2.5 μM Compound 40
Experimental: The differentiation process was started three days after the cells were seeded into 6-well plates. A four-step protocol was used for the in vitro differentiation of H1 human embryonic stem cells to cells expressing markers characteristic of the pancreatic endoderm lineage. Step 1 was conducted over three days to generate cells expressing markers characteristic of the definitive endoderm lineage. On the first day of step 1, differentiation was initiated by aspirating spent culture medium and adding an equal volume of RPMI-1640 basal medium (Invitrogen; Cat #22400) with 2% Albumin Bovine Fraction V, Fatty Acid Free (FAF BSA) (Proliant Biologicals; Cat #SKU 68700) and 8 ng/ml bFGF. In one treatment group, duplicate sets of cells were treated with 100 ng/ml GDF-8 (R&D Systems; Cat #788-G8) and 20 ng/ml Wnt3a (R&D Systems; Cat #1324-WN/CF). In a second treatment group, duplicate sets of cells were treated with 100 ng/ml GDF-8 and 2.5 μM Compound 40. On the second and third day of step 1 differentiation, cells in all treatment groups were fed with RPMI-1640 containing 2% FAF BSA, 8 ng/ml bFGF and 100 ng/ml GDF-8 but without the addition of Wnt3a or Compound 40. […]
Step 4 of the differentiation protocol was carried out over three days. […] On the following day, cells in suspension culture were collected and counted. […]

Compound	percentage of CXCR4 positive cells after step 1 [1]	markers characteristic of the pancreatic endoderm lineage at the conclusion of step 4 (RT-PCR) [2]
CN1CCC(=O)NCCCc2cncc(c2)-c2ncnc(n2)Nc2cccc(c2)C1 [Compound 19, 14-Methyl-3,5,7,14,18,24,28-heptaazatetracyclo[20.3.1.1˜2,6˜0.1˜8,12˜]octacosa-1(26), 2(28), 3,5,8(27), 9,11,22,24-nonaen-17-one]	equivalent or slightly higher percentage of CXCR4 positive cells	–
C=CCN1CC(=O)NCCCc2cncc(c2)-c2ncnc(n2)Nc2cccc(c2)C1 [Compound 40, 14-Prop-2-en-1-yl-3,5,7,14,17,23,27-heptaazatetracyclo[19.3.1.1˜2.6˜0.1˜8,12˜]heptacosa-1(25), 2(27), 3,5,8(26), 9,11,21,23-nonaen-16-one]	equivalent or slightly higher percentage of CXCR4 positive cells	expressed equivalent levels of markers characteristic of the pancreatic endoderm lineage
GDF-8: growth factor GDF-8, also known as myostatin, member of the TGF-β family	–	expressed equivalent levels of markers characteristic of the pancreatic endoderm lineage
